Test results taken from patent US12729377B2, “RNAi agents and compositions for inhibiting expression of angiopoietin-like 3 (ANGPTL3), and methods of use” (Arrowhead Pharmaceuticals, Inc., priority 2017, dated 2026).
In the oligonucleotide strings, read from the 5' end, every base follows the letter of its sugar. An asterisk marks phosphorothioate; unmarked linkages are phosphodiester. Other units and linkages are bracketed, terminal groups are in braces. A string of capitals states the bases alone. {NAG37} = tridentate N-acetyl-galactosamine targeting ligand, structure (NAG37)s; [invAb] = inverted abasic unit; m = 2'-O-methyl; f = 2'-fluoro

Experiments:
ANGPTL3 gene [1] = experiment: Example 6: serum LDL in mice; assay type: in vivo, C57bl/6 mice
Experimental: To assess the in vivo activity of additional ANGPTL3 RNAi agents that are designed to target position 304 on the ANGPTL3 gene, six- to eight-week-old female C57bl/6 mice were used. Pre-dose serum samples were taken at day −1 after a four hour fast. At day 1, each mouse was given a single subcutaneous administration of 200 μl containing 0.5 mg/kg (mpk) of an ANGPTL3 RNAi agent in D5W (dextrose in 5% water), or control (D5W) with no RNAi agent, according to the dosing groups recited in Table 25.
Each of the RNAi agents included a modified sequence and an N-acetyl-galactosamine-containing targeting ligand conjugated to the 5′ terminal end of the sense strand. (See Tables 3, 4, and 5 for modified sequences and targeting ligand structures). The injections were performed between the skin and muscle (i.e. subcutaneous injections) into the loose skin over the neck and shoulder area. Three (3) mice in each group were tested (n=3). Serum was collected on days 8, 15, 22, 30, and on day 43 for certain groups (i.e., Groups 1, 2, 5, and 10 only). Mice were fasted for four hours prior to each collection. ANGPTL3 protein levels in serum were measured by ELISA assay (R&D Systems), according to the manufacturer's recommendations. Triglycerides, total cholesterol, high-density lipoprotein (HDL), and low-density lipoprotein (LDL) in serum were measured on a Cobas® Integra 400 (Roche Diagnostics), according to the manufacturer's recommendations.
The ANGPTL3 protein levels, triglyceride levels, total cholesterol levels, HDL levels, and LDL levels for each animal were normalized. For normalization, the level of ANGPTL3 protein, triglyceride, HDL, and total cholesterol, respectively, for each animal at a time point, was divided by the pre-treatment level of expression in that animal (in this case at day −1) to determine the ratio of expression “normalized to pre-treatment.” Expression at a specific time point was then normalized to the D5W control group by dividing the “normalized to pre-treatment” ratio for an individual animal by the mean “normalized to pretreatment” ratio of all mice in the D5W control group.

ANGPTL3 gene [2] = experiment: Example 12: serum total cholesterol in LDLR knockout mice; assay type: in vivo, LDLR KO mice
Excerpt: To evaluate the effect of RNAi agent administration in a disease model, mice having a genetic mutation for the LDL receptor (referred to herein as LDLR KO mice) were commercially obtained (The Jackson Laboratory). The LDLR KO mice are homozygous for the Ldlr^tm1Her mutation, and have elevated serum cholesterol levels, particularly when placed on a high fat diet. For three weeks prior to the onset of the study, thirty-nine (39) LDLR KO mice were placed on a high fat diet (Teklad Custom Diets TD.88137). An additional eight (8) LDLR KO mice were placed on a normal chow diet over the same three-week period. Pre-dose serum samples were taken on day −15 and day −1 after a four hour fast. At day 1, each mouse was given a single subcutaneous administration of 200 μl/30 g animal body weight containing the respective mg/kg dose of an ANGPTL3 RNAi agent in D5W (dextrose in 5% water), control (D5W) with no RNAi agent, or a control RNAi agent that included a nucleotide sequence designed to target the Hepatitis B Virus (HBV) genome. A second injection of the same formulation was administered to the animals on day 29. The dosing regimen for the study is recited in the following Table 60:
Each mouse remained on its respective diet through the duration of study. The RNAi agent tested (AD05488) included a modified sequence and an N-acetyl-galactosamine-containing targeting ligand conjugated to the 5′ terminal end of the sense strand. (See Tables 3, […] modified sequences and targeting ligand structures). The injections were performed between the skin and muscle (i.e. subcutaneous injections) into the loose skin over the neck and shoulder area. Serum was collected on days 8, 15, 22, 29 (pre-second dose), 36, 43, 50, and 57. LDLR KO mice were fasted for four hours prior to each collection. On day 15, four (4) LDLR KO mice from Groups 1, 2, and 3 (i.e., the groups being administered the high fat “Western” diet) were sacrificed after serum collection, and on day 29, an additional four (4) LDLR KO mice from Groups 1, 2, and 3 were sacrificed after serum collection, for the purpose of performing mRNA assessments.
ANGPTL3 protein levels in serum were measured by ELISA assay (R&D Systems), according to the manufacturer's recommendations. Triglycerides, total cholesterol, high-density lipoprotein (HDL), and low-density lipoprotein (LDL) in serum were measured on a Cobas® Integra 400 (Roche Diagnostics), according to the manufacturer's recommendations.
The ANGPTL3 protein levels, triglyceride levels, total cholesterol levels, HDL levels, and LDL levels for each animal were normalized. For normalization, respective levels of ANGPTL3 protein, TG, total cholesterol, HDL, or LDL for each animal at a time point was divided by the average pre-treatment level of expression in that animal (in this case the average of day −15 and day −1) to determine the ratio of expression “normalized to pre-treatment.”
Expression at a specific time point was then normalized to the D5W control group that was administered the same diet (i.e., either the high fat “Western” diet or the normal chow-fed diet) by dividing the “normalized to pre-treatment” ratio for an individual animal by the mean “normalized to pretreatment” ratio of all mice in the D5W control group on the respective same diet, resulting in expression for each time point normalized to that in the control group.

AD05488: RNAi agent duplex: antisense AM07235-AS, sense AM07234-SS (antisense mU*fA*mC*fUmGfAmUfCmAfAmAfUmAfUmGfUmUfGmAfG*mC; sense {NAG37}*[invAb]*mGmCmUmCmAmAmCmAfUfAfUmUmUmGmAmUmCmAmGmUmA*[invAb])
Avg LDL, normalized to pre-treatment and control (ANGPTL3 gene [1]; Day 8, 0.5 mg/kg single SC injection on day 1, n=3): 0.805
Avg LDL, normalized to pre-treatment and control (ANGPTL3 gene [1]; Day 15, 0.5 mg/kg single SC injection on day 1, n=3): 0.880
Avg LDL, normalized to pre-treatment and control (ANGPTL3 gene [1]; Day 22, 0.5 mg/kg single SC injection on day 1, n=3): 0.991
Avg LDL, normalized to pre-treatment and control (ANGPTL3 gene [1]; Day 30, 0.5 mg/kg single SC injection on day 1, n=3): 1.093
Avg LDL, normalized to pre-treatment and control (ANGPTL3 gene [1]; Day 43, 0.5 mg/kg single SC injection on day 1, n=3): 0.970
reductions in total cholesterol (ANGPTL3 gene [2]; 3.0 mg/kg on days 1 and 29 (Groups 2 and 5), LDLR KO mice): significant reductions
Avg Total Chol Normalized to Pre-Treatment and Control (Diet Matched) (ANGPTL3 gene [2]; 3.0 mg/kg sc day 1, High Fat Diet, Day 8): 0.524
Avg Total Chol Normalized to Pre-Treatment and Control (Diet Matched) (ANGPTL3 gene [2]; 3.0 mg/kg sc day 1, High Fat Diet, Day 15): 0.438
Avg Total Chol Normalized to Pre-Treatment and Control (Diet Matched) (ANGPTL3 gene [2]; 3.0 mg/kg sc day 1, High Fat Diet, Day 22): 0.410
Avg Total Chol Normalized to Pre-Treatment and Control (Diet Matched) (ANGPTL3 gene [2]; 3.0 mg/kg sc day 1, High Fat Diet, Day 29 (pre-second dose)): 0.410
Avg Total Chol Normalized to Pre-Treatment and Control (Diet Matched) (ANGPTL3 gene [2]; 3.0 mg/kg sc day 1, Normal Diet, Day 8): 0.645
Avg Total Chol Normalized to Pre-Treatment and Control (Diet Matched) (ANGPTL3 gene [2]; 3.0 mg/kg sc day 1, Normal Diet, Day 15): 0.683
Avg Total Chol Normalized to Pre-Treatment and Control (Diet Matched) (ANGPTL3 gene [2]; 3.0 mg/kg sc day 1, Normal Diet, Day 22): 0.691
Avg Total Chol Normalized to Pre-Treatment and Control (Diet Matched) (ANGPTL3 gene [2]; 3.0 mg/kg sc day 1, Normal Diet, Day 29 (pre-second dose)): 0.636
Avg Total Chol Normalized to Pre-Treatment and Control (Diet Matched) (ANGPTL3 gene [2]; 3.0 mg/kg sc days 1 and 29, High Fat Diet, Day 36): 0.438
Avg Total Chol Normalized to Pre-Treatment and Control (Diet Matched) (ANGPTL3 gene [2]; 3.0 mg/kg sc days 1 and 29, High Fat Diet, Day 43): 0.363
Avg Total Chol Normalized to Pre-Treatment and Control (Diet Matched) (ANGPTL3 gene [2]; 3.0 mg/kg sc days 1 and 29, High Fat Diet, Day 50): 0.374
Avg Total Chol Normalized to Pre-Treatment and Control (Diet Matched) (ANGPTL3 gene [2]; 3.0 mg/kg sc days 1 and 29, High Fat Diet, Day 57): 0.341
Avg Total Chol Normalized to Pre-Treatment and Control (Diet Matched) (ANGPTL3 gene [2]; 3.0 mg/kg sc days 1 and 29, Normal Diet, Day 36): 0.758
Avg Total Chol Normalized to Pre-Treatment and Control (Diet Matched) (ANGPTL3 gene [2]; 3.0 mg/kg sc days 1 and 29, Normal Diet, Day 43): 0.657
Avg Total Chol Normalized to Pre-Treatment and Control (Diet Matched) (ANGPTL3 gene [2]; 3.0 mg/kg sc days 1 and 29, Normal Diet, Day 50): 0.824
Avg Total Chol Normalized to Pre-Treatment and Control (Diet Matched) (ANGPTL3 gene [2]; 3.0 mg/kg sc days 1 and 29, Normal Diet, Day 57): 0.684
